How the values were obtained:
Conditions in all cases: Compound concentration 1.0 uM
[1] = target: Mitogen-activated protein kinase 10 (Homo sapiens) (UniProt P53779); experiment: JNK3 ProQinase selectivity panel
[2] = target: Macrophage-stimulating protein receptor (Homo sapiens) (UniProt Q04912); experiment: RON ProQinase selectivity panel
[3] = target: Calcium/calmodulin-dependent protein kinase type IV (Homo sapiens) (UniProt Q16566); experiment: CAMK4 ProQinase selectivity panel
[4] = target: Serine/threonine-protein kinase Nek11 (Homo sapiens) (UniProt Q8NG66); experiment: NEK11 ProQinase selectivity panel
[5] = target: MAP/microtubule affinity-regulating kinase 4 (Homo sapiens) (UniProt Q96L34); experiment: MARK4 ProQinase selectivity panel
[6] = target: Platelet-derived growth factor receptor alpha (Homo sapiens) (UniProt P16234); experiment: PDGFR-alpha wt ProQinase selectivity panel
[7] = target: Tyrosine-protein kinase Blk (Homo sapiens) (UniProt P51451); experiment: BLK ProQinase selectivity panel
[8] = target: Rhodopsin kinase GRK7 (Homo sapiens) (UniProt Q8WTQ7); experiment: GRK7 ProQinase selectivity panel
[9] = target: cGMP-dependent protein kinase 2 (Homo sapiens) (UniProt Q13237); experiment: PRKG2 ProQinase selectivity panel
[10] = system: Hepatocyte growth factor receptor (Homo sapiens), P08581 [Y1230H]; experiment: MET Y1230H ProQinase selectivity panel
[11] = target: MAP kinase-activated protein kinase 5 (Homo sapiens) (UniProt Q8IW41); experiment: MAPKAPK5 ProQinase selectivity panel
[12] = target: Rho-associated protein kinase 1 (Homo sapiens) (UniProt Q13464); experiment: ROCK1 ProQinase selectivity panel
[13] = system: Epidermal growth factor receptor (Homo sapiens), P00533 [UNDEFINED MUTATION]; experiment: EGF-R d746-750 ProQinase selectivity panel
[14] = system: Serine/threonine-protein kinase B-raf (Homo sapiens), P15056 [V600E]; experiment: B-RAF V600E ProQinase selectivity panel
[15] = target: Serine/threonine-protein kinase PAK 4 (Homo sapiens) (UniProt O96013); experiment: PAK4 ProQinase selectivity panel
[16] = system: Dual specificity mitogen-activated protein kinase kinase 6 (Homo sapiens), P52564 [S207D,T211D]; experiment: MKK6 S207D/T211D ProQinase selectivity panel
[17] = target: Discoidin domain-containing receptor 2 (Homo sapiens) (UniProt Q16832); experiment: DDR2 ProQinase selectivity panel
Chain of Discoidin domain-containing receptor 2 (Homo sapiens) (Q16832 whole entry, the tested form may be a part): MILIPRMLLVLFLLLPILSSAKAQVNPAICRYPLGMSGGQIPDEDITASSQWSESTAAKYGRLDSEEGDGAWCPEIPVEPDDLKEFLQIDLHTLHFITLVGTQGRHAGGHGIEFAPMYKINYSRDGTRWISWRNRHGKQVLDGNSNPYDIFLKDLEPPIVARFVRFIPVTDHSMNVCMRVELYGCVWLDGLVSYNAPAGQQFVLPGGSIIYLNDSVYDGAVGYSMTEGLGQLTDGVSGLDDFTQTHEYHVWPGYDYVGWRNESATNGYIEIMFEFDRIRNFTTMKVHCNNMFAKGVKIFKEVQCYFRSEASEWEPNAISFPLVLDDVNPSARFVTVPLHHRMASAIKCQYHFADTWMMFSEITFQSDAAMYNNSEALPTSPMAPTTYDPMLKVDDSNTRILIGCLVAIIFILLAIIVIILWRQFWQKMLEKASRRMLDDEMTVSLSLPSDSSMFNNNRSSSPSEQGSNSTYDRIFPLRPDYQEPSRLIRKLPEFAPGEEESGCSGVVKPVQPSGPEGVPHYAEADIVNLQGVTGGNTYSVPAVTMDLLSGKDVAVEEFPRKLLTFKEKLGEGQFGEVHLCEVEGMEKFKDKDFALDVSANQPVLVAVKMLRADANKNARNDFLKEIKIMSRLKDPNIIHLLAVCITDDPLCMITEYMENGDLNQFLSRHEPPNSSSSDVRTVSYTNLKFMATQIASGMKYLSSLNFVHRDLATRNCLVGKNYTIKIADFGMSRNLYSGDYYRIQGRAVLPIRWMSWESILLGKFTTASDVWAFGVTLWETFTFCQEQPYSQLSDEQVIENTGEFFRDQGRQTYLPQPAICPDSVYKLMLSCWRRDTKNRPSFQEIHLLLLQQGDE

Chain of Rhodopsin kinase GRK7 (Homo sapiens) (Q8WTQ7 whole entry): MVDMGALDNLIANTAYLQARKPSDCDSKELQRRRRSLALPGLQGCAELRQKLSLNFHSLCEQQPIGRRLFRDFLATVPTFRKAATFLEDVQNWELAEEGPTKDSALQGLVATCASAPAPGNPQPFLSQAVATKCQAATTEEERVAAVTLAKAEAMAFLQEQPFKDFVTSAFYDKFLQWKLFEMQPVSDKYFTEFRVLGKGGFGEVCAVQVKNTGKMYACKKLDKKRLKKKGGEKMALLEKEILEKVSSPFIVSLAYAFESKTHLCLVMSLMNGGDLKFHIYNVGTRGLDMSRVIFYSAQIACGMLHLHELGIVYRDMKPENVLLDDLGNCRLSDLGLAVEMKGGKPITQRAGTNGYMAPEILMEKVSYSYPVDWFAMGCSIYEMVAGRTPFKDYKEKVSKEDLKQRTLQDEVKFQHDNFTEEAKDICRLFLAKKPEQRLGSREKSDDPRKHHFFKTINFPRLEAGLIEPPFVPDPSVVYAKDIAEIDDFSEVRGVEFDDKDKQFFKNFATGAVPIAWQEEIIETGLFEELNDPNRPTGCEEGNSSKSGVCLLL
Chain of Calcium/calmodulin-dependent protein kinase type IV (Homo sapiens) (Q16566 whole entry): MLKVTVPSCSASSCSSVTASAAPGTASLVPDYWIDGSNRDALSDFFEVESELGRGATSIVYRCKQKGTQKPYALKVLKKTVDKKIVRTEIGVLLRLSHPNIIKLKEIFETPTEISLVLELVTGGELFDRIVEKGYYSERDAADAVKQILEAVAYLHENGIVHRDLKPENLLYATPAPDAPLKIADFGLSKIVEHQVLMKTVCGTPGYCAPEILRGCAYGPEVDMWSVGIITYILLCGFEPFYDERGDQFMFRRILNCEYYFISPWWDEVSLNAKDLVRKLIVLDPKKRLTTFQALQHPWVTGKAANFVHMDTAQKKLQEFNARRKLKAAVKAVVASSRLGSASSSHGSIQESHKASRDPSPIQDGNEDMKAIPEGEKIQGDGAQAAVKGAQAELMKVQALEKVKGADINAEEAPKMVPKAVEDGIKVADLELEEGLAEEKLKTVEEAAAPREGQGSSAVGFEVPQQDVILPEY
Chain of Mitogen-activated protein kinase 10 (Homo sapiens) (P53779 whole entry): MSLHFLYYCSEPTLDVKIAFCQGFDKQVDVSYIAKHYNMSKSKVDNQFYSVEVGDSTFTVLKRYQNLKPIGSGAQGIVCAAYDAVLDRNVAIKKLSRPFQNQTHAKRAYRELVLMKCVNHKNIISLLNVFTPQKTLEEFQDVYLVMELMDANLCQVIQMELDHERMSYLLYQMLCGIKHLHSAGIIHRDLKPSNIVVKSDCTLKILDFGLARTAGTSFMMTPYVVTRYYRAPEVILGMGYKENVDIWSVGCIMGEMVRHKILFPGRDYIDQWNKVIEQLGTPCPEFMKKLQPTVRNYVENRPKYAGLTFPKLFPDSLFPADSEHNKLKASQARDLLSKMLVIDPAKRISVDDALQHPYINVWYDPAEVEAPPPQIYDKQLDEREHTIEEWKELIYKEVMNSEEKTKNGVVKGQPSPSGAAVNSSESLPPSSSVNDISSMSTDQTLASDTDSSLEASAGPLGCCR
Chain of Epidermal growth factor receptor (Homo sapiens), P00533 [UNDEFINED MUTATION] (P00533 whole entry, looked up, stated change not applied): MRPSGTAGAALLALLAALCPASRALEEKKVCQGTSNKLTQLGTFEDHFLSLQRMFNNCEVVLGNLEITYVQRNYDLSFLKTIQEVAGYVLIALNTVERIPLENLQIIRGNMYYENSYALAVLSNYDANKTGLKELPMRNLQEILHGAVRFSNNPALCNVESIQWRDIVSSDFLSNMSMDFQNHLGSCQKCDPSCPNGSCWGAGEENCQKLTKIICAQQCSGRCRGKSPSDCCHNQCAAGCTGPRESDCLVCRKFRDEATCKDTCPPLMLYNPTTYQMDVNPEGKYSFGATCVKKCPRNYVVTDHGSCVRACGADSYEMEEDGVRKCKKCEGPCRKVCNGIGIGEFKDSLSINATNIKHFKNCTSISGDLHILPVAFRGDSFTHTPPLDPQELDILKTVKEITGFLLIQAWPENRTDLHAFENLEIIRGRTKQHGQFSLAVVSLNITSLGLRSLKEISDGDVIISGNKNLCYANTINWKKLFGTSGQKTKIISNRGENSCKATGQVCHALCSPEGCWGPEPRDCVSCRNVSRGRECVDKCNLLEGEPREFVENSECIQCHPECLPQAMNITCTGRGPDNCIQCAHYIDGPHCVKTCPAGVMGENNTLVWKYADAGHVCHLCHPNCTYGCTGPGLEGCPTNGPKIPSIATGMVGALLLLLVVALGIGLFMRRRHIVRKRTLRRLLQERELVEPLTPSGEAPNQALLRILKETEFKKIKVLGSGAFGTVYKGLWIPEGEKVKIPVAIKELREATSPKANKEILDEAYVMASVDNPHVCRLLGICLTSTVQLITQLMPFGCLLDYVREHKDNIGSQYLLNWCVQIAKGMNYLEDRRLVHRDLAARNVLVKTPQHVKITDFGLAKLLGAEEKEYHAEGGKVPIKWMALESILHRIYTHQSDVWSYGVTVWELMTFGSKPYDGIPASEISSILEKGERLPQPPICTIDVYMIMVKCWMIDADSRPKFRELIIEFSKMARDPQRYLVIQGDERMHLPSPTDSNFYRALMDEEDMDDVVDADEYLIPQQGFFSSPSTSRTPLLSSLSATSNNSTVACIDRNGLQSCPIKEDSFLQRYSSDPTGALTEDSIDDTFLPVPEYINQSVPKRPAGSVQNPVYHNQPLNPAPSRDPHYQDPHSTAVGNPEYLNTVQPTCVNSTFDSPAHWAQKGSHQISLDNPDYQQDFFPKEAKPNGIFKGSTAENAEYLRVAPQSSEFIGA
Chain of Serine/threonine-protein kinase Nek11 (Homo sapiens) (Q8NG66 whole entry): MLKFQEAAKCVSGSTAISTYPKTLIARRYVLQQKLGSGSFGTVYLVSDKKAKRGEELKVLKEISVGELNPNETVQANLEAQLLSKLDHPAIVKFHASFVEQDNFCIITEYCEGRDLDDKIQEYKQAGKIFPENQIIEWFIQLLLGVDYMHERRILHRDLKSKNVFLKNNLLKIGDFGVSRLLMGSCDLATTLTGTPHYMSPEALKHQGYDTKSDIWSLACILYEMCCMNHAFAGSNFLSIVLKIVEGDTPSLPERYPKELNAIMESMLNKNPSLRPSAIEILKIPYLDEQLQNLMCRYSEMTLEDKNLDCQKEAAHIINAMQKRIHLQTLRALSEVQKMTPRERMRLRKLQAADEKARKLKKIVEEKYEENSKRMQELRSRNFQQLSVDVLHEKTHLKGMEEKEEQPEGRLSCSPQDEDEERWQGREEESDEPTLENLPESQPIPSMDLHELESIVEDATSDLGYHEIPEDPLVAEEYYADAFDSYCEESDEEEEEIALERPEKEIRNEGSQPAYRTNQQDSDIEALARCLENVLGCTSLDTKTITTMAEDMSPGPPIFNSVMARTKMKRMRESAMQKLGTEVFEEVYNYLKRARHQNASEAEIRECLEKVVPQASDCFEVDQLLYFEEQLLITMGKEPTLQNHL
Chain of Dual specificity mitogen-activated protein kinase kinase 6 (Homo sapiens), P52564 [S207D,T211D] (P52564 whole entry S207D/T211D, the tested form may be a part): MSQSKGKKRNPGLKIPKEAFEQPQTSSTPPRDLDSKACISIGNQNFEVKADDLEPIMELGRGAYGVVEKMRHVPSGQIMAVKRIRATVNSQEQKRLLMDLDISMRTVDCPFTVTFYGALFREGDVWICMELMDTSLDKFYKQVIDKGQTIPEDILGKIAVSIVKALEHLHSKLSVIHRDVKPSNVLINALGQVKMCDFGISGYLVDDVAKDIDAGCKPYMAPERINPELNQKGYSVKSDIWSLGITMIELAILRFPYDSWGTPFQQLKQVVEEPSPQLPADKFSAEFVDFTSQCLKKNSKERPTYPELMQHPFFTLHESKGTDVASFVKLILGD
Chain of Tyrosine-protein kinase Blk (Homo sapiens) (P51451 2-505 limits assumed): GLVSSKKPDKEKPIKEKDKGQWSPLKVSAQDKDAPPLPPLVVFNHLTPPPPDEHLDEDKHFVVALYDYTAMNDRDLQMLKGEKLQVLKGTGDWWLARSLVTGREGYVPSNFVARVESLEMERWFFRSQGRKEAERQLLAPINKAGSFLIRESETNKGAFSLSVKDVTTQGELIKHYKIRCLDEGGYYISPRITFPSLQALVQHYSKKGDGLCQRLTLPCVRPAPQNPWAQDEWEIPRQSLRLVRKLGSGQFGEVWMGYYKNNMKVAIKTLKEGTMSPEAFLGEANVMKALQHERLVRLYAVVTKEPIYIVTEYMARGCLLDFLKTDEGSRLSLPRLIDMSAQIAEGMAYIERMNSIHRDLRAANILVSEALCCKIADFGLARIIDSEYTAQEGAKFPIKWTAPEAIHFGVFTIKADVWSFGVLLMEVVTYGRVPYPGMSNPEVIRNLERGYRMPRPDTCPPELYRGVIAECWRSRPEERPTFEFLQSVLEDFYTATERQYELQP

% Residual activity with Skepinone-L [1]: 33% | % Residual activity with Skepinone-L [2]: 56% | % Residual activity with Skepinone-L [3]: 111% | % Residual activity with Skepinone-L [4]: 113% | % Residual activity with Skepinone-L [5]: 96% | % Residual activity with Skepinone-L [6]: 91% | % Residual activity with Skepinone-L [7]: 107% | % Residual activity with Skepinone-L [8]: 107% | % Residual activity with Skepinone-L [9]: 94% | % Residual activity with Skepinone-L [10]: 102% | % Residual activity with Skepinone-L [11]: 97% | % Residual activity with Skepinone-L [12]: 97% | % Residual activity with Skepinone-L [13]: 100% | % Residual activity with Skepinone-L [14]: 135% | % Residual activity with Skepinone-L [15]: 88% | % Residual activity with Skepinone-L [16]: 120% | % Residual activity with Skepinone-L [17]: 102%
SMILES: O=C1c2ccc(Nc3ccc(F)cc3F)cc2CCc2ccc(OC[C@H](O)CO)cc21 [Skepinone-L]

From ChEMBL document CHEMBL4507316 (2021)
